Patent publication US8546381B2, “Bridged heterocyclic compounds and methods of use” (Medivation Technologies, Inc., priority 2008, dated 2013)

Experiments:
[1] = molecular target: T1, rat adrenergic α1B receptor (Rattus norvegicus, UniProt P15823); assay: Adrenergic α1B radioligand binding ([3H]Prozosin); conditions: for inhibition at 1 µM: read-out: Adrenergic α1B, inhibition of ligand binding (1 μM)
T1 construct: obtained from Wistar Rat liver; from tissue; host or cells: Wistar rat liver
T1 sequence (P15823 1-515): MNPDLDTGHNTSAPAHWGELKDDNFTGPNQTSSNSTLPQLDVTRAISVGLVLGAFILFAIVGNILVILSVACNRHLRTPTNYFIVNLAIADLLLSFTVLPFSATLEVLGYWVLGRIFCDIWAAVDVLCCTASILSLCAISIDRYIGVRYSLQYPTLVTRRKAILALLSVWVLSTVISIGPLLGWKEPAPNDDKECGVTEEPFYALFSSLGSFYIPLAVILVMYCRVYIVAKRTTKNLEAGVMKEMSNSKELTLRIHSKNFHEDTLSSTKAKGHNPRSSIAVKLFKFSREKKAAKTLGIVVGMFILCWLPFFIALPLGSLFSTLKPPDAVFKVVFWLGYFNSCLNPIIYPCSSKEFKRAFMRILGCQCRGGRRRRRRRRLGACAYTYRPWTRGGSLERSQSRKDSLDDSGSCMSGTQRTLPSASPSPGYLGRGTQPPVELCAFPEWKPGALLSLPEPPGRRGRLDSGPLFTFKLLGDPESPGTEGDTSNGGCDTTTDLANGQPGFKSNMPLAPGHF
Experimental: To evaluate in radioligand binding assays the activity of compounds of the invention, rat adrenergic α1B receptor obtained from Wistar Rat liver (Garcia-S'ainz, J. A. et al., Biochem. Biophys. Res. Commun. 186:760, 1992; Michel A. D. et al., Br. J. Pharmacol. 98:883, 1989) in a modified Tris-HCl buffer (50 mM Tris-HCl buffer, pH 7.4, 0.5 mM EDTA) was used. Compounds of the invention were incubated with 0.25 nM [^3H]Prozosin for 60 minutes at 25° C. Non-specific binding was estimated in the presence of 10 μM phentolamine. Receptor proteins were filtered and washed, the filters were then counted to determine [^3H]Prozosin specifically bound. Compounds were screened at 1 μM or lower, using 1% DMSO as vehicle. Compounds of the invention were tested in this biochemical assay and percent inhibition of specific binding was determined.

[2] = molecular target: T2, human recombinant adrenergic α2C receptor (Homo sapiens, UniProt P18825); assay: Adrenergic α2C radioligand binding ([3H]MK-912); conditions: for inhibition at 1 µM: read-out: Adrenergic α2C, inhibition of ligand binding (1 μM)
T2 construct: expressed in transfected cells; host or cells: insect Sf9 cells
T2 sequence (P18825 1-462): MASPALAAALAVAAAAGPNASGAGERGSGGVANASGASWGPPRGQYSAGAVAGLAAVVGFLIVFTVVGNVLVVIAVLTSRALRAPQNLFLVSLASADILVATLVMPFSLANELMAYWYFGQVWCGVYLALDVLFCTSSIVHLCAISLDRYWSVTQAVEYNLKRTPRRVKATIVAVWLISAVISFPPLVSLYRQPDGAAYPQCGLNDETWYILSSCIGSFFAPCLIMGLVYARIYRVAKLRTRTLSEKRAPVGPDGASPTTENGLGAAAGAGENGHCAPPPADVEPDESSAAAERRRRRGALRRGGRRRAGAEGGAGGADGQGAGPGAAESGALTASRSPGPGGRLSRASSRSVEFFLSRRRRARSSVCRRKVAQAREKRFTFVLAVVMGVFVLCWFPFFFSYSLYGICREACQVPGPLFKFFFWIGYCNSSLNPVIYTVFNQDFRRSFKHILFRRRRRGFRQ
Experimental: To evaluate in radioligand binding assays the activity of compounds of the invention, human recombinant adrenergic α2C receptor expressed in insect Sf9 cells (Uhlen S et al. J Pharmacol Exp Ther. 271:1558, 1994) in a modified Tris-HCl buffer (50 mM Tris-HCl, pH 7.4, 12.5 mM MgCl2, 2 mM EDTA) was used. Compounds of the invention were incubated with 1 nM [^3H]MK-912 for 60 minutes at 25° C. Non-specific binding was estimated in the presence of 10 μM WB-4101. Receptor proteins were filtered and washed, the filters were then counted to determine [^3H]MK-912 specifically bound. Compounds were screened at 1 μM or lower, using 1% DMSO as vehicle. Compounds of the invention were tested in this biochemical assay and percent inhibition of specific binding was determined.

[3] = molecular target: T3, human recombinant serotonin (5-Hydroxytryptamine) 5-HT2B receptor (Homo sapiens, UniProt P41595); assay: Serotonin 5-HT2B radioligand binding ([3H]LSD); conditions: for inhibition at 1 µM: read-out: Serotonin 5-HT2B, inhibition of ligand binding (1 μM)
T3 construct: expressed in transfected cells; host or cells: CHO-K1 cells
Experimental: To evaluate in radioligand binding assays the activity of compounds of the invention, human recombinant serotonin (5-Hydroxytryptamine) 5-HT2B receptor expressed in Chinese hamster ovary (CHO-K1) cells (Bonhaus, D. W. et al., Br. J. Pharmacol. 115:622, 1995) in a modified Tris-HCl buffer (50 mM Tris-HCl, pH 7.4, 4 mM CaCl2, 0.1% Ascorbic Acid) was used. Compounds of invention were incubated with 1.2 nM [^3H]Lysergic acid diethylamide (LSD) for 60 minutes at 37° C. Non-specific binding was estimated in the presence of 10 μM Serotonin (5-HT). Receptor proteins were filtered and washed, the filters were then counted to determine [^3H]LSD specifically bound. Compounds were screened at 1 μM or lower, using 1% DMSO as vehicle. Compounds of the invention were tested in this biochemical assay and percent inhibition of specific binding was determined. Biochemical assay results are presented as the percent inhibition of specific binding in Table 4.

[4] = molecular target: T4, human recombinant serotonin (5-Hydroxytryptamine) 5-HT5A receptor (Homo sapiens, UniProt P47898); assay: Serotonin 5-HT5A radioligand binding ([3H]LSD); conditions: read-out: Serotonin 5-HT5A, inhibition of ligand binding (1 μM)
T4 construct: expressed in transfected cells; host or cells: CHO-K1 cells
Experimental: To evaluate in radioligand binding assays the activity of compounds of the invention, human recombinant serotonin (5-Hydroxytryptamine) 5-HT5A receptor expressed in Chinese hamster ovary (CHO-K1) cells (Rees, S. et al., FEBS Lett. 355:242, 1994) in a modified Tris-HCl buffer (50 mM Tris-HCl, pH 7.4, 10 mM MgCl2, 0.5 mM EDTA) was used. Compounds of the invention were incubated with 1.7 nM [^3H]Lysergic acid diethylamide (LSD) for 60 minutes at 37° C. Non-specific binding was estimated in the presence of 100 μM Serotonin (5-HT). Receptor proteins were filtered and washed, the filters were then counted to determine [^3H]LSD specifically bound. Compounds were screened at 1 μM or lower, using 1% DMSO as vehicle. Compounds of the invention were tested in this biochemical assay and percent inhibition of specific binding was determined. Biochemical assay results are presented as the percent inhibition of specific binding in Table 4.

T4 sequence (P47898 whole entry): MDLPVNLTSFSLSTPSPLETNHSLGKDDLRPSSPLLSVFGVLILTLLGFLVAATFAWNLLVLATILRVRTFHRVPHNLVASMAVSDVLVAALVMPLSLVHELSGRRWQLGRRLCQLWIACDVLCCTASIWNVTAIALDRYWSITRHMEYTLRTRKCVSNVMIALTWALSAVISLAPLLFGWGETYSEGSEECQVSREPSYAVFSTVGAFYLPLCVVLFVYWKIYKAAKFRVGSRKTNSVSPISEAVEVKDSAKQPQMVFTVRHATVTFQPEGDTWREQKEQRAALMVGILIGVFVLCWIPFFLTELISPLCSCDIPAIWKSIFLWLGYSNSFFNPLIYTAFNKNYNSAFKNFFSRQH
T3 sequence (P41595 whole entry): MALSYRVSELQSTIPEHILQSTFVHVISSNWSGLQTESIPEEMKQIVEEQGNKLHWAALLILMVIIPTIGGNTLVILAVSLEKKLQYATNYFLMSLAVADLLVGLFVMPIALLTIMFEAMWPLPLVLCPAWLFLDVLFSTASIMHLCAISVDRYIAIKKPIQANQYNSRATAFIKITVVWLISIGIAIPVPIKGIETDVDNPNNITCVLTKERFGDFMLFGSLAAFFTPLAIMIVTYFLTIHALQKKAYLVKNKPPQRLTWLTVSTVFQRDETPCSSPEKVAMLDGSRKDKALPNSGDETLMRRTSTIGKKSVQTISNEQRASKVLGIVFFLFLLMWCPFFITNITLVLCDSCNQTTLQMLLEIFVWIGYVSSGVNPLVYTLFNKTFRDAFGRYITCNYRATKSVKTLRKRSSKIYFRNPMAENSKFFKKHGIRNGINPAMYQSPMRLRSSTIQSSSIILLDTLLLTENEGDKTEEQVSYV

| SMILES | inhibition at 0.03 µM ([1]; read-out: Adrenergic α1B, inhibition of ligand binding (0.03 μM)) [%] | inhibition at 0.3 µM ([1]; read-out: Adrenergic α1B, inhibition of ligand binding (0.3 μM)) [%] | inhibition at 1 µM [1] [%] | inhibition at 0.03 µM ([2]; read-out: Adrenergic α2C, inhibition of ligand binding (0.03 μM)) [%] | inhibition at 0.3 µM ([2]; read-out: Adrenergic α2C, inhibition of ligand binding (0.3 μM)) [%] | inhibition at 1 µM [2] [%] | inhibition at 0.03 µM ([3]; read-out: Serotonin 5-HT2B, inhibition of ligand binding (0.03 μM)) [%] | inhibition at 0.3 µM ([3]; read-out: Serotonin 5-HT2B, inhibition of ligand binding (0.3 μM)) [%] | inhibition at 1 µM [3] [%] | inhibition at 1 µM [4] [%] |
| --- | --- | --- | --- | --- | --- | --- | --- | --- | --- | --- |
| Cc1ccc2c(c1)c1c(n2CCc2ccccc2)CC2CCC1N2C (stereo not shown) [Compound 2] | 63 | 89 | 99 | 14 | 69 | 97 | 37 | 88 | 71 | 86 |
| Cc1ccc2c(c1)c1c(n2CCc2ccccc2)CC2CCCC1N2C (stereo not shown) [Compound 56] | – | – | 80 | – | – | 55 | – | – | -11 | 40 |
| CN1C2CCC1c1c(n(CCc3ccc(F)cc3)c3ccc(Cl)cc13)C2 (stereo not shown) [Compound 57] | – | – | 87 | – | – | 83 | – | – | 48 | 48 |
| CN1C2CCC1c1c(n(CCc3ccc(Cl)cc3)c3ccc(Cl)cc13)C2 (stereo not shown) [Compound 58] | – | – | 83 | – | – | 89 | – | – | 32 | 69 |
